Test results taken from US20160346249A1 (priority 2012, published 2016).
Values joined by “and” are separate entries in the source; they are usually repeats but may differ in a detail not shown here. Identical values can stand only once.

Assay: Single rising oral dose (10-150 mg IR) safety, tolerance and pharmacokinetics in healthy male volunteers
Assay type: in vivo, human
Excerpt: Fifty (50) healthy male adult volunteers, between the ages of 19 and 43 years (mean±SD: 28±6 years) were enrolled in the study and randomized to the […] different treatments. […] The subjects were divided into panels of 10 subjects/dose group. Seven subjects in each group received the test drug, while three received an identical-looking placebo. […] The five treatments are outlined below:
The subjects were admitted to the clinic the night before dose administration and fasted from approximately 10 hour before to 4 hour after ingestion of the study capsules. Treatments were administered with 240 mL of mineral water between 08:00 and 09:00 hours. […] The assay calibration range was 5 to 2,000 ng/mL.
The values of Cmax and Tmax were the observed value for each subject. The terminal elimination rate constant λz was derived from the log-linear disposition phase of the concentration-time curve using linear least-squares regression for which the program determined the appropriate number of terminal points to calculate λz. At least three terminal plasma concentrations were used for estimating λz. The t1/2 (HL_Lambda_z) was calculated as ln 2/λz. AUC0-t and AUMC0-t were determined using the linear trapezoidal rule for each increasing concentration and the log-trapezoidal rule for descending concentrations. The AUC values from the last quantifiable time point to infinity was calculated as Ct/λz. This value was added to AUC0-t to obtain AUC0-∞. […] Oral clearance was calculated as Dose/AUC0-∞. The 90% confidence intervals were calculated for all of the variables.
SAS, version 8.2, was used for the analysis.

[1] = 10 mg, individual subject, listed as DOV 21,947
[2] = 25 mg, individual subject, listed as DOV 21,947
[3] = 50 mg, individual subject, listed as DOV 21,947
[4] = 100 mg, individual subject, listed as DOV 21,947
[5] = 150 mg, individual subject, listed as DOV 21,947

Clc1ccc([C@]23CNC[C@H]2C3)cc1Cl [amitifadine, (+)-1-(3,4-dichlorophenyl)-3-azabicyclo[3.1.0]hexane]
λ2 (10 mg, Geometric Mean): 0.204 h⁻¹
AUC0-∞ (10 mg, Maximum): 551 ng·h/mL
AUC(0-t) (10 mg, Maximum): 492 ng·h/mL
MRT0-∞ (10 mg, Maximum): 6.09 h
t1/2 (10 mg, Maximum): 3.90 h
λ2 (10 mg, Maximum): 0.233 h⁻¹
λz (10 mg, Mean (n = 7)): 0.205 h⁻¹
λ2 (10 mg, Median): 0.200 h⁻¹
AUC0-∞ (10 mg, Minimum): 257 ng·h/mL
AUC(0-t) (10 mg, Minimum): 227 ng·h/mL
MRT0-∞ (10 mg, Minimum): 4.72 h
t1/2 (10 mg, Minimum): 2.98 h
λ2 (10 mg, Minimum): 0.178 h⁻¹
MRT0-∞ [1]: 5.47 h and 4.72 h and 6.09 h and 4.84 h
t1/2 [1]: 3.63 h and 3.90 h and 3.09 h and 2.98 h and 3.79 h and 3.08 h
λ2 [1]: 0.200 hr^−1 and 0.191 hr^−1 and 0.178 hr^−1 and 0.225 hr^−1 (2×) and 0.233 hr^−1 and 0.183 hr^−1
λ2 (25 mg, Geometric Mean): 0.234 h⁻¹
AUC0-∞ (25 mg, Maximum): 2350 ng·h/mL
AUC(0-t) (25 mg, Maximum): 2220 ng·h/mL
MRT0-∞ (25 mg, Maximum): 6.46 h
t1/2 (25 mg, Maximum): 5.25 h
λ2 (25 mg, Maximum): 0.493 h⁻¹
λz (25 mg, Mean (n = 7)): 0.251 h⁻¹
AUC(0-t) (25 mg, Mean (n = 7), listed as DOV 21,947): 1380 ng·h/mL
λ2 (25 mg, Median): 0.231 h⁻¹
AUC0-∞ (25 mg, Minimum): 1080 ng·h/mL
AUC(0-t) (25 mg, Minimum): 995 ng·h/mL
MRT0-∞ (25 mg, Minimum): 4.26 h
t1/2 (25 mg, Minimum): 1.41 h
λ2 (25 mg, Minimum): 0.132 h⁻¹
MRT0-∞ [2]: 4.26 h and 6.46 h and 4.98 h and 4.29 h and 4.39 h
λ2 [2]: 0.222 hr^−1 and 0.231 hr^−1 (2×) and 0.132 hr^−1 and 0.191 hr^−1 and 0.258 hr^−1 and 0.493 hr^−1
λ2 (50 mg, Geometric Mean): 0.190 h⁻¹
AUC0-∞ (50 mg, Maximum): 3270 ng·h/mL
AUC(0-t) (50 mg, Maximum): 3220 ng·h/mL
MRT0-∞ (50 mg, Maximum): 5.66 h
t1/2 (50 mg, Maximum): 4.39 h
λ2 (50 mg, Maximum): 0.245 h⁻¹
λz (50 mg, Mean (n = 7)): 0.192 h⁻¹
λ2 (50 mg, Median): 0.191 h⁻¹
AUC0-∞ (50 mg, Minimum): 1690 ng·h/mL
AUC(0-t) (50 mg, Minimum): 1530 ng·h/mL
MRT0-∞ (50 mg, Minimum): 4.38 h
t1/2 (50 mg, Minimum): 2.62 h
λ2 (50 mg, Minimum): 0.158 h⁻¹
MRT0-∞ [3]: 4.38 h and 5.43 h and 5.22 h and 5.60 h and 5.66 h
λ2 [3]: 0.213 h⁻¹ and 0.245 h⁻¹ and 0.199 h⁻¹ and 0.158 h⁻¹ and 0.191 h⁻¹ and 0.167 h⁻¹ and 0.170 h⁻¹
λ2 (100 mg, Geometric Mean): 0.167 h⁻¹
AUC0-∞ (100 mg, Maximum): 5960 ng·h/mL
AUC(0-t) (100 mg, Maximum): 5900 ng·h/mL
MRT0-∞ (100 mg, Maximum): 7.03 h
t1/2 (100 mg, Maximum): 4.35 h
λ2 (100 mg, Maximum): 0.177 h⁻¹
λz (100 mg, Mean (n = 7)): 0.167 h⁻¹
λ2 (100 mg, Median): 0.164 h⁻¹
AUC0-∞ (100 mg, Minimum): 4030 ng·h/mL
AUC(0-t) (100 mg, Minimum): 3960 ng·h/mL
MRT0-∞ (100 mg, Minimum): 4.85 h
t1/2 (100 mg, Minimum): 3.92 h
λ2 (100 mg, Minimum): 0.159 h⁻¹
MRT0-∞ [4]: 7.03 h and 5.71 h and 5.63 h and 4.85 h
λ2 [4]: 0.176 hr^−1 and 0.162 hr^−1 and 0.173 hr^−1 and 0.159 hr^−1 (2×) and 0.164 hr^−1 and 0.177 hr^−1
λ2 (150 mg, Geometric Mean): 0.191 h⁻¹
AUC0-∞ (150 mg, Maximum): 11100 ng·h/mL
AUC(0-t) (150 mg, Maximum): 10900 ng·h/mL
MRT0-∞ (150 mg, Maximum): 7.14 h
t1/2 (150 mg, Maximum): 4.87 h
λ2 (150 mg, Maximum): 0.288 h⁻¹
λz (150 mg, Mean (n = 7)): 0.195 h⁻¹
t1/2 (150 mg, Mean (n = 7), listed as DOV 21,947): 3.91 h
λ2 (150 mg, Median): 0.189 h⁻¹
AUC0-∞ (150 mg, Minimum): 6590 ng·h/mL
AUC(0-t) (150 mg, Minimum): 6390 ng·h/mL
MRT0-∞ (150 mg, Minimum): 4.66 h
t1/2 (150 mg, Minimum): 2.41 h
λ2 (150 mg, Minimum): 0.142 h⁻¹
MRT0-∞ [5]: 7.03 h and 6.70 h and 4.66 h and 7.14 h
λ2 [5]: 0.177 h⁻¹ and 0.142 h⁻¹ and 0.189 h⁻¹ and 0.288 h⁻¹ and 0.200 h⁻¹ and 0.159 h⁻¹ and 0.209 h⁻¹
variability of Cmax and AUC (all doses): ≤ 30%
MRT inf (human, plasma, oral, 10 mg, individual subject, read-out: MRT0-∞): 5.36 h
